Data from patent US20260048075A1, “Inhibition of TCF4/ITF2 in the Treatment of Cancer” (VIB VZW, priority 2022, published 2026).
Read-outs that look alike come from different tables or passages of the source.

Columns and labels:
TCF4 locus = assay: OmniATAC-seq chromatin accessibility; format: cell-based, human; details: MM057 cells; ARV-771 100 nM
Description: Approximately […] MM057 cells were plated in a 6-well plate and treated with ARV-771 100 nM after 24 hours. Forty eight hours after plating, cells were collected. Nuclei of 50,000 cells were isolated and an Omni-assay for transposase-accessible chromatin using sequencing (OmniATAC-seq) was performed as described previously (Corces et al. 2017, Nat Methods 14:959-962). After final amplification, samples were cleaned up with MinElute (QIAGEN) and libraries were prepared using the KAPA Library Quantification Kit (supplier). Samples were sequenced on an IlluminaNextSeq 500 High Output chip. Briefly, reads were mapped to human genome (GRCh37) using STAR (2.7.1a-foss-2018a). Resulting BAMfiles were cleaned for duplicates using Picard (2.21.8-Java-1.8.0) and indexed. Mitochondrial reads were removed using SAMtools (1.9-20190828-foss-2018a) and BigWig files were created (deepTools/3.3.1-foss-2018a-Python-3.7.4). ATAC-seq peaks were identified and visualized using MACS2 peak calling (2.1.2.1-foss-2018a-Python-2.7.16) with […] BAMPE parameters. Finally, BED files were created from broadPeak files using BEDTools (2.28.0-foss-2018a).

MM029 cells = assay: Proliferation assay (IncuCyte cell confluency); format: cell-based, human; details: ARV-771 300 nM with dabrafenib 50 nM, trametinib 10 nM, FIG. 9
Description: Roughly 400 MM029 cells per well were plated in a 96-well plate and treated with ARV-771 300 nM and/or Dabrafenib 50 nM+Trametinib 10 nM after 24 hours. Cells were imaged using the IncuCyte ZOOM System (Essen Bioscience) and automated cell confluency measurements were made using images taken at 2 hour intervals, for the duration of the experiments. Five technical replicates were averaged and statistical significance was assessed (paired, two-tailed Student's t-test).

melanoma MES cells = assay: Bulk RNA sequencing after ARV-771 exposure; format: cell-based, human; details: 50 nM ARV-771; for antigen presentation program expression: melanoma MES cells
Description: Approximately 2*10^5 cells were plated in a 6-well plate. For knockdown experiments, these were transfected with the described siRNA pool 24 and 72 hours after plating and collected 24 hours after the second transfection. For inducible TCF4 experiments, cells were treated with 2 ng/ml doxycycline (Sigma-Aldrich, Cat #D9891) every 48 hours and collected 96 hours after plating. For ARV-771 experiments, cells were treated with 50 nM ARV-771 (Bioconnect, Cat #HY-100972) 24 hours after plating and collected 96 hours after plating. RNA was extracted using the RNA NucleoSpin extraction kit (Macherey&Nagel) according to the manufacturer's instructions.
The RNA integrity was monitored using Bioanalyzer analysis. 5 ng of RNA per sample was reverse-transcribed and amplified using a modified version of the SMARTseq2 protocol, previously described in Rambow et al. 2018 (Cell 174:843-855.e19). Prior to generating sequencing libraries using the NexteraXT kit (Illumina, Cat #FC-131-10), cDNA profiles were monitored using the Bioanalyzer. Sequencing was performed on a Illumina Nextseq500 platform. Differential gene expression analyses were executed using the DeSeq2 pipeline.

TCF4 [1] = assay: RT-qPCR of TCF4 expression after ARV-771; format: cell-based, human; details: MM057 cells; collected 48 hours after plating
Description: MM057 cells were plated and treated with the specified dose of ARV-771, as described above 48 hours after plating, cells were collected, resuspended in RA1 lysis buffer using the RNA NucleoSpin extraction kit (Macherey&Nagel) and processed according to manufacturer's instructions. RNA was quantified using a ThermoScientific NanoDrop 1000 and 500 to 2000 ng was reverse transcribed with a High-Capacity cDNA Reverse Transcription Kit (Life Technologies). qPCRs were run using the SensiFAST probe No-ROX kit (Bioline, Cat #BIO-86005) on a Roche Life Science LightCycler 384. Data processing with Biogazelle Qbase+3.1 software relied on normalization with a minimum of two reference genes.

TCF4 [2] = details: B cell lymphoma and BPDCN; Jain et al. 2019, Ceribelli et al. 2016; cited from earlier work

Cc1ncsc1-c1ccc([C@H](C)NC(=O)[C@@H]2C[C@@H](O)CN2C(=O)[C@@H](NC(=O)COCCCOCCNC(=O)C[C@@H]2N=C(c3ccc(Cl)cc3)c3c(sc(C)c3C)-n3c(C)nnc32)C(C)(C)C)cc1 [ARV-771]
chromatin accessibility upstream of the TCF4 locus (TCF4 locus): decreased chromatin accessibility upstream of the TCF4 locus | sensitivity to BRAF- and MEK-inhibition (cell growth) (MM029 cells): increased sensitivity to BRAF- and MEK-inhibition | expression of genes from the MES signature (melanoma MES cells): strongly downregulated | expression of genes from the MITF-dependent MEL signature (melanoma MES cells): upregulated | transcriptional changes compared with TCF4 silencing (melanoma MES cells): recapitulated most of the transcriptional changes observed upon TCF4 silencing | antigen presentation program expression (melanoma MES cells): upregulated | antigen presentation program expression (melanoma MES cells; listed as ARV-711): unleashes the expression of antigen presentation machinery and HLA-genes | overall transcriptional reprogramming effect upon BET-inhibition (melanoma MES cells; mesenchymal-like vs melanocytic cell lines): far more drastic in mesenchymal-like than in melanocytic cell lines | TCF4 expression (TCF4 [1]): dose-dependent decrease in TCF4 expression | TCF4 expression (TCF4 [2]): decrease its expression
